In US9629863B2, “CDK5 inhibitors and therapeutic uses thereof” (The Hong Kong University of Science and Technology, priority 2009, dated 2017):

Columns and labels:
[1] = biological target: Cdk5/p25 (Homo sapiens, UniProt Q00535); experiment: FRET-based Z'-LYTE Cdk5 kinase assay, Cdk5/p25; assay type: biochemical; conditions: for inhibition at 30 µM: compound 30 μM, 30 ng/ml Cdk5/p25, FIG. 3; for IC50: Cdk5/p25, Table 1; for inhibition at 200 µM: Cdk5/p25, at 200 μM; for mode of inhibition on Cdk5/p25 complex: 0.5, 1, 2 and 4 μM, increasing ATP, FIG. 11; for inhibitory effect on Cdk5/p25: FIG. 8-10, in words; for inhibition at 80 µM: Cdk5/p25, at 80 μM
Protocol: (§1) Cdk5 kinase assay was performed as described in the instruction manual (Invitrogen, cat. no. PV3673). This assay employs a FRET-based, coupled-enzyme format and is based on the differential sensitivity of phosphorylated and non-phosphorylated peptides to proteolytic cleavage. The assay uses a synthetic peptide substrate (the Z′-LYTE™ peptide substrate) that is labeled with a donor fluorophore (coumarin) and an acceptor fluorophore (fluorescein) to make up a FRET pair. In the primary reaction, Cdk5 transfers the γ-phosphate of ATP to a serine/threonine residue on the substrate, while the presence of a kinase inhibitor in the primary reaction suppresses phosphorylation. […] Cleavage disrupts FRET between the donor and acceptor fluorophores on the non-phosphorylated substrate, while uncleaved phosphorylated substrate maintains FRET. The effectiveness of the compounds on inhibiting the Cdk5 activity is then measured by calculating the emission ratio.
(§2) The plate was then incubated for one hour at room temperature. Development solution was then added in the dark for another hour. […] To calculate the activity of cdk5/p25 and Cdk5/p35, Z′-LYTE phosphopeptide was used as a 100% phosphorylation control while nonphosphorylated Z′-LYTE peptide is used as a 0% phosphorylation control to establish the maximal and minimal emission ratio values which enable to calculate the percentage of kinase phosphorylation. To determine the inhibitory effect on cdk5 activity, fractions and compounds to be tested were included in the kinase reaction. Zero inhibition was determined by using DMSO (solvent) instead of the compounds in the reaction. […] Assays were done in quadruplicates and data was averaged from at least 4 independent experiments. Similar experimental protocols were performed for Cdk1/cyclin B and Cdk2/cyclin A kinase activity study. Activity of each kinase complex was evaluated by titration, and the resultant value of EC30 was used in the inhibitory study. Since activity of kinase complexes varies with different batches of preparation, EC30 will be determined in each new batch of kinases. […] Kinetic studies of compounds were performed by Cdk5/p25 kinase assays with various concentrations of ATP and tested compounds. The kinetic parameters were determined by a nonlinear least-squares program using GraphPad Prism 5 software.
(§3) Using the FRET-based Cdk5 kinase assay method described above, the compounds of the present invention were examined for their inhibitory effects on Cdk5 kinase activity. The amount of Cdk5/25 and Cdk5/p35 used for screening Cdk5 inhibitors is EC30 of the kinase complex and the EC30 was determined with a titration study of kinase complex. The effectiveness of the compounds on inhibiting Cdk5 activity was then measured by comparing the percent phosphorylation of peptide substrates by Cdk5 kinase in the presence of test compounds and percent phosphorylation of peptide substrates by Cdk5 without test compounds.
Seven natural compounds isolated from Rhodiola rosea (F199) were selected for IC50 and maximal inhibition determination. Various concentrations of the F199 compounds were incubated with Cdk5/p25. The effectiveness of the compounds on inhibiting Cdk5 activity was then calculated by comparing the percent phosphorylation of peptide substrates by Cdk5/p25 in the presence of test compounds and percent phosphorylation of peptide substrates by Cdk5/p25 without test compounds.

[2] = biological target: Cdk5/p35 (Homo sapiens, UniProt Q00535); experiment: FRET-based Z'-LYTE Cdk5 kinase assay, Cdk5/p35; assay type: biochemical; conditions: for inhibition at 30 µM: compound 30 μM, 30 ng/ml Cdk5/p35, FIG. 3; for inhibitory effect on Cdk5/p35: FIG. 8-10, in words
Protocol: as §1, §2, §3

[3] = biological target: Cdk5 (Homo sapiens, UniProt Q00535); conditions: reported elsewhere, controls; cited from earlier work
[4] = tested on: rat cortical neurons; experiment: Aβ assay (MTT) in cortical neurons; assay type: cell-based; conditions: about 30 and 50 μM, Aβ25-35 10 μM, vs DMSO control
Protocol: Embryonic rat cortical neurons (7 DIV) were pre-treated with various concentrations of compounds (3-50 μM) and then co-incubated with Aβ25-35 (10 μM). After overnight incubation, the MTT assay was performed. Cell survival was calculated as a percentage compared to the vehicle control (DMSO). Assays were conducted in duplicates and data were compared with student-t test. *=P<0.05.
Cortical neurons at 7 DIV in culture isolated from embryonic day 18 rats were used as cell models in the assay. Toxicity caused by Aβ25-35 peptide in these cells was evaluated by MTT detection after […]. The Aβ assay was performed to investigate the ability of the invention to protect cortical neurons from cell death induced by exogenous Aβ25-35 peptide addition. Assays were done in duplicates and data was averaged from at least 3 independent experiments.
Exogenous addition of Aβ initiates cell death of neuronal cultures via apoptosis. The MTT assay, a well-known cell death assay, was performed to study the ability of the compounds of the present invention to prevent Aβ-induced excitotoxicity in primary cortical neuronal cells. Embryonic rat cortical neurons (7 DIV) were pre-treated with various concentrations of the compounds (3-50 μM) and then co-incubated with Aβ25-35 (10 μM). After overnight incubation, the MTT assay was performed. Cell survival was calculated as a percentage compared to the vehicle control (DMSO). Assays were conducted in duplicates and data were analyzed with student-t test. *=P<0.05. The results of exemplary compounds, F199-C6, F199-C34 and F199-C22 are presented in FIG. 5, FIG. 6 and FIG. 7, respectively.

[5] = biological target: Cdk1/cyclin B (Homo sapiens, UniProt P06493); experiment: Z'-LYTE kinase assay, Cdk1/cyclin B; assay type: biochemical; conditions: FIG. 8-10, in words
Protocol: (§4) Cdk5 kinase assay was performed by adding Z′-LYTE™ peptide substrate and ATP together with Cdk5/p25 or Cdk5/p35 kinase solution in a 384-well black polystyrene plate (Corning 3676). The plate was then incubated for one hour at room temperature. Development solution was then added in the dark for another hour. Finally, stop solution was added and the coumarin and fluorescein emission signals were measured on a fluorescence plate reader (Tecan, infinite F500) (excitation: 400 nm, emission 445 and […], respectively). To calculate the activity of cdk5/p25 and Cdk5/p35, Z′-LYTE phosphopeptide was used as a 100% phosphorylation control while nonphosphorylated Z′-LYTE peptide is used as a 0% phosphorylation control to establish the maximal and minimal emission ratio values which enable to calculate the percentage of kinase phosphorylation. To determine the inhibitory effect on cdk5 activity, fractions and compounds to be tested were included in the kinase reaction. Zero inhibition was determined by using DMSO (solvent) instead of the compounds in the reaction. […]. Assays were done in quadruplicates and data was averaged from at least 4 independent experiments. Similar experimental protocols were performed for Cdk1/cyclin B and Cdk2/cyclin A kinase activity study. Activity of each kinase complex was evaluated by titration, and the resultant value of EC30 was used in the inhibitory study. Since activity of kinase complexes varies with different batches of preparation, EC30 will be determined in each new batch of kinases. […] Kinetic studies of compounds were performed by Cdk5/p25 kinase assays with various concentrations of ATP and tested compounds. The kinetic parameters were determined by a nonlinear least-squares program using GraphPad Prism 5 software.

[6] = biological target: Cdk2/cyclin A (Homo sapiens, UniProt P24941); experiment: Z'-LYTE kinase assay, Cdk2/cyclin A; assay type: biochemical; conditions: FIG. 8-10, in words
Protocol: as §4

[7] = tested on: formalin-induced pain; experiment: Animal model of pain (formalin paw-licking); assay type: in vivo, mice
Protocol: Adult ICR mice (6-8 week-old) habituated in the experimental room for 3 days before the testing. Testing was conducted from 9 am to 3 pm. Mice were randomly grouped and weighed. Mice were pretreated with a single dose of F199-C16 (10-100 mg/kg, intraperitoneal injection) and then injected with 10 μl of 2.5% formalin in the subplantar of the right hind paw. The licking time (in seconds) was recorded during 0-10 minutes (early phase) and in 11-40 minutes (late phase) after formalin injection. The whole process was monitored and recorded by a digital monochrome video camera. Data were expressed as the mean±SEM. (*p<0.05; ANOVA, with Student-Newman Keuls test).
The effect of F199-C16 was examined in an animal model of pain. The pain was induced by injecting formalin into the paw of the mouse.

Chain of Cdk5/p25 (Q00535 whole entry, species assumed): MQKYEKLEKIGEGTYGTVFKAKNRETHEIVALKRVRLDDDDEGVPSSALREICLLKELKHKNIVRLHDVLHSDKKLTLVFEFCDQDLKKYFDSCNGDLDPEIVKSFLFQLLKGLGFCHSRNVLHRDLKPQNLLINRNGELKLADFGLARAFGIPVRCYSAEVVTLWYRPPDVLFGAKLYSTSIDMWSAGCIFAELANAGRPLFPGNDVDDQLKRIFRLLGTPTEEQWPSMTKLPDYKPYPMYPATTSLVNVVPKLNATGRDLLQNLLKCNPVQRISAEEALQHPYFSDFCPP
Chain of Cdk5/p25 (Q15078 99-307 partner limits assumed, species assumed): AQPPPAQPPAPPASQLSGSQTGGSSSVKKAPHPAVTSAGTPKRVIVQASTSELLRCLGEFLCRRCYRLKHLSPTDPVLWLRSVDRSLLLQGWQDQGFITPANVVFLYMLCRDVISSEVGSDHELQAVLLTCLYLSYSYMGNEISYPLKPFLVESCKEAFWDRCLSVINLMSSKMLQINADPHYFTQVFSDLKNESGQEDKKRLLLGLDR
Chain of Cdk5/p35 (Q00535 whole entry, species assumed): as the sequence (Q00535 whole entry, species assumed) above
Chain of Cdk5/p35 (Q15078 whole entry partner, species assumed): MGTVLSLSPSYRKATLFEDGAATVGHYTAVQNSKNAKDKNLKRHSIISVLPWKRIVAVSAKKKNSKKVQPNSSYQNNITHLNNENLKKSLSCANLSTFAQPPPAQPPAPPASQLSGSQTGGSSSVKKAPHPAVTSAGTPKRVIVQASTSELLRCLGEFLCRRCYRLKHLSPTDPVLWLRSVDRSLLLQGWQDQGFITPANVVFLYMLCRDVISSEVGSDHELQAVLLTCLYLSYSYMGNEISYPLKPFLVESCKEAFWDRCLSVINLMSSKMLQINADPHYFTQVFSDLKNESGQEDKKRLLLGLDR
Chain of Cdk1/cyclin B (P06493 whole entry, species assumed): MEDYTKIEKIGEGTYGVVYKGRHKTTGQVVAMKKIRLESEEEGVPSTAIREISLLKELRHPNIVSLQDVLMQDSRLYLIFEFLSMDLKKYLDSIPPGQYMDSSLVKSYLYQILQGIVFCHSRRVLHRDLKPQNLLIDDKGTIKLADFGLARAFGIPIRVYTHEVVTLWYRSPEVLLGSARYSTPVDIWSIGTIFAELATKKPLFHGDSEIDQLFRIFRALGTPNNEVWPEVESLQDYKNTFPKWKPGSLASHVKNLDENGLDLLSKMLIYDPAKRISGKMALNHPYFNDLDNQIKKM
Chain of Cdk1/cyclin B (P14635 whole entry partner, species assumed): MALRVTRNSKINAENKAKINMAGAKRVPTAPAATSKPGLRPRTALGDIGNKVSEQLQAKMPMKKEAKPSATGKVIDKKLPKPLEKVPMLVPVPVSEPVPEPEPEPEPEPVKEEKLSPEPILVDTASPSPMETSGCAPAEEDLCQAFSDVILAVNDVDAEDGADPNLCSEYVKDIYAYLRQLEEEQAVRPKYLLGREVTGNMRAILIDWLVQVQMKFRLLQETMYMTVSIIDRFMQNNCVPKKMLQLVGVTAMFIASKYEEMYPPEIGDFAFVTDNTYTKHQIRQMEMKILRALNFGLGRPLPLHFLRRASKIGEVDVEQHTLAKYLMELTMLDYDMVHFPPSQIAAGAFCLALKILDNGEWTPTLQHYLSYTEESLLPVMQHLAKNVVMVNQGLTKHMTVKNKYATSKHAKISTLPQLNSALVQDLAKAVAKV
Chain of Cdk5 (Q00535 whole entry, species assumed): as the sequence (Q00535 whole entry, species assumed) above
Chain of Cdk5 (Q15078 whole entry partner, species assumed): as the sequence (Q15078 whole entry partner, species assumed) above

CC[C@H](CC[C@@H](C)[C@H]1CC[C@H]2[C@@H]3CC=C4C[C@@H](O[C@@H]5O[C@H](CO)[C@@H](O)[C@H](O)[C@H]5O)CC[C@]4(C)[C@H]3CC[C@]12C)C(C)C [Compound F199-C1, daucosterol, reference compound]
inhibition at 30 µM [1]: < 25%
inhibition at 30 µM [2]: < 25%
reported inhibition of Cdk5 activity [3]: moderately inhibit Cdk5 activity

O=c1c(O)c(-c2ccc(O)cc2)oc2cc(O)cc(O)c12 [Compound F199-C2, kaempferol]
reported inhibition of Cdk5 activity [3]: moderately inhibit Cdk5 activity

O=C(O)c1cc(O)c(O)c(O)c1 [Compound F199-C4, gallic acid]
IC50 [1]: 40.6 µM
inhibition at 200 µM ([1]; read-out: Maximum inhibition): 64.2%
inhibition at 30 µM [1]: 25 to 50%
inhibition at 30 µM [2]: 25 to 50%

O=c1c(O)c(-c2ccc(O)cc2)oc2c(OC3OCC(O)C(O)C3O)c(O)cc(O)c12 (stereo not shown) [Compound F199-C6, rhodalin]
IC50 [1]: 34.4 µM
inhibition at 200 µM ([1]; read-out: Maximum inhibition): 56.6%
inhibition at 30 µM [1]: 25 to 50%
inhibition at 30 µM [2]: 25 to 50%
neuronal cell survival against Aβ toxicity [4]: significantly promoted neuronal cell survival

CC1OC(Oc2c(O)cc(O)c3c(=O)c(O)c(-c4ccc(O)cc4)oc23)C(O)C(O)C1O (stereo not shown) [Compound F199-C16, litvinolin]
mode of inhibition on Cdk5/p25 complex [1]: mixed inhibition
IC50 [1]: 3.24 µM
inhibition at 200 µM ([1]; read-out: Maximum inhibition): 87.5%
inhibitory effect on Cdk5/p25 [1]: milder inhibition
inhibition at 30 µM [1]: 50 to 75%
inhibitory effect on Cdk5/p35 [2]: milder inhibition
inhibition at 30 µM [2]: 50 to 75%
inhibitory effect on Cdk1/cyclin B [5]: potently
inhibitory effect on Cdk2/cyclin A [6]: minimal
licking time, early phase (0-10 min) ([7]; 100 mg/kg i.p.): significantly reduced the licking time
licking time, late phase (11-40 min) ([7]; 100 mg/kg i.p.): significantly reduced the licking time
licking time of right hind paw ([7]; 10-100 mg/kg i.p., single dose, formalin): reduced the licking time of right hind paw in a dose-dependent manner

O=C(OCC1OC(OC/C=C/c2ccccc2)C(O)C(O)C1O)c1cc(O)c(O)c(O)c1 (stereo not shown) [Compound F199-C22, 6-O-galloyl rosin]
IC50 [1]: 20.1 µM
inhibition at 80 µM ([1]; read-out: Maximum inhibition): 46.5%
inhibition at 30 µM [1]: < 25%
inhibition at 30 µM [2]: < 25%
neuronal cell survival against Aβ toxicity [4]: significantly promoted neuronal cell survival

COc1ccc(-c2oc3c(O)c(O)cc(O)c3c(=O)c2O)cc1 [Compound F199-C23, 4′-methoxyherbacetin]
mode of inhibition on Cdk5/p25 complex [1]: mixed inhibition
IC50 [1]: 1.21 µM
inhibition at 20 µM ([1]; Cdk5/p25, at 20 μM, read-out: Maximum inhibition): 45%
inhibitory effect on Cdk5/p25 [1]: inhibited similarly
inhibition at 30 µM [1]: 50 to 75%
inhibitory effect on Cdk5/p35 [2]: inhibited similarly
inhibition at 30 µM [2]: 50 to 75%
inhibitory effect on Cdk1/cyclin B [5]: inhibited similarly
inhibitory effect on Cdk2/cyclin A [6]: minimal

O=C(OCC1OC(Oc2ccc(O)cc2)C(O)C(O)C1O)c1cc(O)c(O)c(O)c1 (stereo not shown) [Compound F199-C34, 6-O-galloyl arbutin]
IC50 [1]: 5.63 µM
inhibition at 80 µM ([1]; read-out: Maximum inhibition): 70%
inhibitory effect on Cdk5/p25 [1]: potent inhibitory effect
inhibition at 30 µM [1]: 50 to 75%
inhibitory effect on Cdk5/p35 [2]: less effect
inhibition at 30 µM [2]: 50 to 75%
inhibitory effect on Cdk1/cyclin B [5]: less effect
inhibitory effect on Cdk2/cyclin A [6]: less effect
neuronal cell survival against Aβ toxicity [4]: significantly promoted neuronal cell survival

O=C(O[C@@H]1Cc2c(O)cc(O)cc2O[C@@H]1c1cc(O)c(O)c(O)c1)c1cc(O)c(O)c(O)c1 [Compound F199-C35, epigallocatechin-3-gallate]
IC50 [1]: 14.7 µM
